Read-outs that look alike come from different tables or passages of the source.
Key:
[1] = tested on: MCF10A cells
Experimental: Cells were authenticated by the supplier (http://www.ATCC.org) and cultured as recommended by ATCC for less than six months from the time of resuscitation. HCC1806, HCC1428 and T47D cells stably expressing triple hemagglutinin (HA)-tagged CREB3L1 (HA-CREB3L1) have been described and characterized previously.
Cells were allowed to attach and grow at 37° C. and 5% CO2. The following day the media was carefully removed from each well and replaced with drug-containing media in triplicate wells, again using the ASSIST PLUS. After 4 days of drug treatment cells were stained with Hoechst and ImageIT® Dead Green to quantify total and live cells as detailed below.
Images of each well of the 384-well plates were acquired using a Thermo Scientific® CellInsight® CX7 High Content Screening (HCS) Platform. Nine fields of view were captured using a 10×(0.4 NA) air objective lens. Images were analyzed using Thermo Scientific HCS Studio® 3 Cell Analysis Software using the Spot Detector bio-application (Cellomics®). Total cells were identified and counted by their Hoechst-stained nuclei at 386 nm (blue) channel 1 (Ch1) and dead cells were quantified from the ImageIT® Dead Green on the 485 nm wavelength (green) channel 2 (Ch2). […] The test well total live cell count was divided by the average of the corresponding solvent control total live cell count, giving the percentage cell viability (% viability). The mean±standard error of the mean (SEM) of the % viability of each set of triplicate wells was determined.
Drug titration experiments were carried out as described for the secondary drug screens, except a range of drug concentrations were tested. […] EC values were determined using PRISM software (GraphPad, v9.2.0) using non-linear curve fit. A student's t-test was used to determine statistically significant differences between the EC values for the two cell lines. Significance was defined as p<0.05.

[2] = tested on: HCC1806 cells; assay: cells; format: cell-based
Excerpt: (§1) Significance was defined as p<0.05.

[3] = tested on: HCC1395; assay: Cell viability drug titration (EC50), 4 days of drug treatment; format: cell-based; conditions: Homo sapiens
Excerpt: as §1

[4] = tested on: HCC1806+HA-CREB3L1 cells; assay: as above; format: cell-based; conditions: Homo sapiens, 96 h, single agent
Excerpt: as §1

[5] = tested on: T47D; assay: as above; format: cell-based; conditions: Homo sapiens, 96 h
Excerpt: as §1

[6] = tested on: MDA-MB-157; assay: as above; format: cell-based; conditions: Homo sapiens, MDA-MB-157, 96 h
Excerpt: as §1

[7] = tested on: T47D + HA-CREB3L1; assay: as above; format: cell-based; conditions: Homo sapiens, 96 h
Excerpt: as §1

[8] = tested on: HCC38; assay: as above; format: cell-based; conditions: Homo sapiens
Excerpt: as §1

[9] = tested on: Hs578T; assay: as above; format: cell-based; conditions: Homo sapiens, Hs-578T, 96 h
Excerpt: as §1

[10] = tested on: HCC1428 + HA-CREB3L1; assay: as above; format: cell-based; conditions: Homo sapiens
Excerpt: as §1

[11] = tested on: HCC1428; assay: as above; format: cell-based; conditions: for drug sensitivity of HCC1428 as compared to the corresponding CREB3L1-expressing cells: HCC1428 vs HCC1428 + HA-CREB3L1; for EC50: Homo sapiens
Excerpt: as §1

[12] = tested on: MDA-MB-436; assay: as above; format: cell-based; conditions: Homo sapiens
Excerpt: as §1

[13] = tested on: ZR-75-1; assay: as above; format: cell-based; conditions: Homo sapiens
Excerpt: as §1

[14] = tested on: MCF7; assay: as above; format: cell-based; conditions: Homo sapiens
Excerpt: as §1

[15] = tested on: BT549; assay: as above; format: cell-based; conditions: Homo sapiens, BT-549, 96 h
Excerpt: as §1

[16] = tested on: MDA-MB-231 TNBC xenografts; conditions: cited from earlier work
[17] = tested on: anti-apoptotic proteins, including MCL-1, BCL-2 and surviving; conditions: several TNBC cell lines; reference [21]; cited from earlier work
[18] = tested on: TNBC; conditions: combined with docetaxel, reference [23]; cited from earlier work
[19] = Homo sapiens, HCC1806, 96 h, HCC1806 parental (CREB3L1-deficient TNBC), single agent, 4 days of drug treatment, read-out: EC50
[20] = 96 h, HCC1395 parental (TNBC), single agent, 4 days, read-out: EC50
[21] = T47D parental (Luminal A, ER+), single agent, 4 days, read-out: EC50
[22] = T47D + HA-CREB3L1, single agent, 4 days, read-out: EC50
[23] = 96 h, HCC38 parental (TNBC), single agent, 4 days, read-out: EC50
[24] = Hs578T parental (TNBC), single agent, 4 days, read-out: EC50
[25] = 96 h, HCC1428 + HA-CREB3L1, single agent, 4 days, read-out: EC50
[26] = 96 h, HCC1428 parental (Luminal A, ER+), single agent, 4 days, read-out: EC50
[27] = 96 h, MDA-MB-436 parental (TNBC), single agent, 4 days, read-out: EC50
[28] = 96 h, ZR-75-1 parental (Luminal A, ER+), single agent, 4 days, read-out: EC50
[29] = 96 h, MCF7 parental (Luminal A, ER+), single agent, 4 days, read-out: EC50
[30] = BT549 parental (TNBC), single agent, 4 days, read-out: EC50

Compound | cytotoxicity towards non-tumorigenic MCF10A cells as compared to HCC1806 cells [1] | EC50 [2, 19] | cytotoxicity towards CREB3L1-deficient HCC1806 as compared to HCC1806+HA-CREB3L1 cells ([2]; drug titration, 4 days, FIG. 2) | EC50 [3, 20] | EC50 [4] | EC50 [5, 21] | EC50 [7, 22] | EC50 [8, 23] | EC50 [9, 24] | EC50 [10, 25] | drug sensitivity of HCC1428 as compared to the corresponding CREB3L1-expressing cells [11] | EC50 [11, 26] | EC50 [12, 27] | EC50 [13, 28] | EC50 [14, 29] | EC50 [15, 30] | other results
Nc1nc(Cl)nc2c1ncn2[C@H]1C[C@H](O)[C@@H](CO)O1 [Cladribine, cladribine] | Little or no cytotoxicity | 92 nM | showed a preference for killing the more metastatic CREB3L1-deficient HCC1806 TNBC cells | 10100 ± 1200 nM | 182 ± 60 nM | 9600 ± 1800 nM | 1800 ± 1300 nM | 65 ± 56 nM | 5700 ± 1200 nM | 2200 ± 1700 nM | increased drug sensitivity | 740 ± 330 nM | 660 ± 180 nM | 750 ± 350 nM | 3400 ± 2100 nM | 178 ± 84 nM | EC50 ([6]; read-out: EC50): 5000 ± 4300 nM
COc1cccc2c1C(=O)c1c(O)c3c(c(O)c1C2=O)C[C@@](O)(C(=O)CO)C[C@@H]3O[C@H]1C[C@H](N)[C@H](O)[C@H](C)O1 [Doxorubicin, doxorubicin] | – | 13 ± 4 nM | – | – | 17 ± 6 nM | – | – | – | – | – | – | – | – | – | – | – | EC50 ([2]; HCC1806 parental (CREB3L1-deficient TNBC), single agent, 4 days of drug treatment, read-out: EC50): 13.2 nM
COC(=O)C[C@](O)(CCCC(C)(C)O)C(=O)O[C@@H]1C(OC)=C[C@]23CCCN2CCc2cc4c(cc2[C@H]13)OCO4 [Homoharringtonine, 1-((1S,3aR,14bS)-2-Methoxy-1,5,6,8,9,14b-hexahydro-4H-cyclopenta(a)(1,3)dioxolo(4,5-h)pyrrolo (2,1-b)(3)benzazepin-1-yl) 4-methyl (2R)-2-hydroxy-2-(4-hydroxy-4-methylpentyl)butanedioate] | similar | 29 nM | showed a preference for killing the more metastatic CREB3L1-deficient HCC1806 TNBC cells | 104 ± 31 nM | 42 ± 7 nM | 400 ± 180 nM | 88 ± 55 nM | 58 ± 10 nM | 42 ± 24 nM | 10 ± 3 nM | the opposite was true | 9 ± 3 nM | 33 ± 36 nM | 117 ± 35 nM | 18 ± 9 nM | 89 ± 10 nM | tumor growth ([16]; MDA-MB-231 TNBC xenografts, mice, reference [21]): reduced tumor growth; general toxicity for the mice ([16]; mouse, in vivo): without general toxicity; expression of anti-apoptotic proteins, including MCL-1, BCL-2 and surviving [17]: rapidly reduce the expression; EC50 ([6]; read-out: EC50): 7.5 ± 1.2 nM
CC(=O)O[C@H]1C[C@H](O[C@H]2[C@@H](O)C[C@H](O[C@H]3[C@@H](O)C[C@H](O[C@H]4CC[C@@]5(C)[C@H](CC[C@@H]6[C@@H]5C[C@@H](O)[C@]5(C)[C@@H](C7=CC(=O)OC7)CC[C@]65O)C4)O[C@@H]3C)O[C@@H]2C)O[C@H](C)[C@H]1O[C@@H]1O[C@H](CO)[C@@H](O)[C@H](O)[C@H]1O [Lanatoside C, lanatoside C] | very sensitive | – | – | – | – | – | – | – | – | – | the opposite was true | – | – | – | – | – | cytotoxicity towards CREB3L1-deficient HCC1806 as compared to HCC1806+HA-CREB3L1 cells [2]: showed a preference for killing the more metastatic CREB3L1-deficient HCC1806 TNBC cells; EC50 ([2]; Homo sapiens, HCC1806, 96 h): 143 nM; EC50 ([3]; HCC1395, 96 h): 510 ± 300 nM; EC50 ([5]; T47D): 500 ± 50 nM; EC50 [6]: 550 ± 240 nM; EC50 ([7]; T47D): 89 ± 34 nM; EC50 ([8]; HCC38, 96 h): 300 ± 100 nM; EC50 [9]: 1000 ± 800 nM; EC50 ([10]; HCC1428, 96 h): 32 ± 8 nM; EC50 ([11]; HCC1428, 96 h): 35 ± 8 nM; EC50 ([12]; MDA-MB-436, 96 h): 460 ± 250 nM; EC50 ([13]; ZR-75-1, 96 h): 650 ± 510 nM; EC50 ([14]; MCF7, 96 h): 450 ± 490 nM; EC50 [15]: 42 ± 12 nM
CC(=O)O[C@H]1C(=O)[C@@]2(C)[C@H]([C@H](OC(=O)c3ccccc3)[C@]3(O)C[C@H](OC(=O)[C@H](O)[C@@H](NC(=O)c4ccccc4)c4ccccc4)C(C)=C1C3(C)C)[C@]1(OC(C)=O)CO[C@@H]1C[C@@H]2O [Paclitaxel, (2α,4α,5β,7β,10β,13α)-4, 10-Bis(acetyloxy)-13-{[(2R,3S)-3-(benzoylamino)-2-hydroxy-3-phenylpropanoyl]oxy}-1,7-dihydroxy-9-oxo-5,20-epoxytax-11-en-2-yl benzoate] | – | 1.2 ± 0.5 nM | – | 12 nM | 1.2 ± 0.4 nM | – | – | 2.4 nM | 7.4 nM | – | – | – | – | – | – | – | –
CC(=O)c1c(C)c2cnc(Nc3ccc(N4CCNCC4)cn3)nc2n(C2CCCC2)c1=O [Palbociclib Isethionate, palbociclib isethionate] | very sensitive | 500 nM | showed a preference for killing the more metastatic CREB3L1-deficient HCC1806 TNBC cells | 4000 ± 2000 nM | 1300 ± 490 nM | 13000 ± 9800 nM | 7200 ± 9200 nM | 210 ± 70 nM | 3200 ± 1400 nM | 160 ± 250 nM | – | 21 ± 15 nM | 17000 ± 14000 nM | 710 ± 350 nM | 4400 ± 3500 nM | 12600 ± 4800 nM | –
Cc1c(-c2c(-c3ccc(F)o3)sc3ncnc(O[C@H](Cc4ccccc4OCc4ccnn4CC(F)(F)F)C(=O)O)c23)ccc(OCCN2CCN(C)CC2)c1Cl [S63845] | – | – | – | – | – | – | – | – | – | – | – | – | – | – | – | – | synergistic activity with docetaxel [18]: synergistic activity
